The source of these data is patent publication US20170367338A1, “COMPOSITIONS AND METHODS FOR IMPROVING AGRONOMIC CHARACTERISTICS OF PLANTS” (MONSANTO TECHNOLOGY LLC, priority 2014, published 2017).

Read-outs that look alike come from different tables or passages of the source. Marks after values point to notes of the source that are not given here.

Series [1] has as its system soybean cyst nematode (SCN). Nature of the series: SCN greenhouse sand assay on soybean plants. The conditions noted are these: Glycine max, 672 h, read-out: percent control (cyst number reduction) relative to the control blank treatment. Type of series: in vivo.
A further series deals with root knot nematode (RKN). Nature of the series: RKN greenhouse soil assay on cucumber plants. Type of series: in vivo. The following applies: for percent control (galling reduction) relative to the control blank treatment: 0 day treatment. The text has this:
Cucumber seeds are planted in a sandy soil mixture in two inch square plastic pots. When the cotyledons are fully opened and just as the first leaf begins to emerge, usually 7 days after planting, chemistry for the 7 day treatment is applied. One week later the chemistry for the 0 day treatment is applied. Separate plants are used for each application. The plants are generally in the 1-2 leaf stage now. At least four hours after the chemistry application the pots are inoculated with root knot nematode (RKN) eggs. Plants are rated for galling 14 days after the egg inoculation.
One milligram of chemistry per four pots is equal to one kilogram per hectare of chemical. A standard test uses four replications. For rates above 2 kg/ha, the desired amount of chemical is weighed into a 30 ml vial (example: 8 kg/ha rate =8 mg chemical in 30 ml vial). The chemical is dissolved in 2 ml of appropriate solvent, generally acetone. For rates below 2 kg/ha, 2 milligrams of chemistry is weighed into the vial and dissolved in 2 ml of the solvent. The appropriate amount of chemical concentrate is then pipetted into a separate 30 ml vial and solvent is added to bring the volume to 2 ml (example 0.5 kg/ha=0.5 ml of concentrate+1.5 ml solvent). Each dissolved concentrate is then brought to a total of 20 milliliters using 0.05% Triton X 100 surfactant solution.
Pots to be treated are moist but not saturated. To each of four pots, five milliliters of the appropriate chemical solution is pipetted to the media surface making sure to avoid contact with the base of the plant. Immediately following chemical application, using a mist nozzle, the pot surface is wetted sufficiently to saturate the pot watering in the chemistry. The chemical application is done in the morning.
Nematode eggs, either SCN or RKN, are added to distilled water to create a concentration of 1000 vermiform eggs […]. At least four hours after chemical treatment the eggs are applied to the treated pots plus non-treated check plants. A small hole about 1 cm deep is punched into the pot surface. One milliliter of the nematode egg slurry is pipetted into the hole. Immediately afterwards the hole is gently covered. Watering of the test plants is then restricted to only water as needed to prevent wilt for a period of 24 hours. After the 24 hour restricted watering, normal sub-irrigation watering is done for the duration of the test.

The next series concerns root knot nematode. The series is described as follows: Pre-plant incorporated (PPI) greenhouse test of root knot nematode on cucumber plants. The conditions noted are these: for pest or weed control at 4000 g/ha: 4 kg/ha, read-out: percent control (galling reduction), 4 kg/ha rate; for pest or weed control at 8000 g/ha: 8 ka/ha, read-out: percent control (galling reduction), 8 ka/ha rate. Type of series: in vivo. Put shortly: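 Compound in acetone, diluted in 0.05% X100, was mixed into a field soil/sand mix at doses simulating 8, 4 and 2 kg/ha incorporated 15 cm deep, with 4 pots per treatment. Cucumber was seeded and root knot nematode eggs were applied 7, 14 or 21 days after soil treatment. Harvest followed 14 days after inoculation.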

Series [2] has as its system Heterodera glycines (SCN). The series is described as follows: Seed treatment test of soybean cyst nematode on soybean. It is filed as in vivo. The following applies: Heterodera glycines, 672 h, test a, read-out: percent cyst reduction relative to control blank treatment. Put shortly: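 Seeds (1 g cucumber for RKN, soybean for SCN) coated with compound in 500 ul acetone, air-dried, sown in sandy soil. Pots inoculated 3 days later with 1000 eggs per pot. Galling rated 14 days (RKN) or 28 days (SCN) after inoculation.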

In another series the test system is caspase-3. The series is described as follows: Caspase-3 activity in H4IIE cells (DEVD-AMC). Type of series: cell-based. The conditions noted are these: rat hepatoma derived H4IIE cells, concentrations up to 300 μM. The protocol:
To evaluate whether the compound classes of this invention are able to induce apoptosis, caspase-3 activity was determined after compound exposure in rat hepatoma derived H4IIE cells using a caspase substrate (DEVD, Asp-Glu-Val-Asp) labeled with a fluorescent molecule, 7-Amino-4-methylcoumarin (AMC). Caspase 3 cleaves the tetrapeptide between D and AMC, thus releasing the fluorogenic […] AMC. Following the test article exposure to cells in 96-well plates, medium was aspirated from plates and PBS added to each well. Plates were stored at −80° C. to lyse cells and store samples until further analysis. On the day of analysis, plates were removed from freezer and thawed. Caspase buffer with fluorescent substrate was added to each well and incubated at room temperature for one hour. AMC release was measured in a spectrofluorometer at an excitation wavelength of 360 nm and an emission wavelength of 460 nm. Values are expressed as relative fluorescent units (RFU).

Where [3] appears, read: 168 h, seven day pre-plant incorporated.
Setting [4] is: 336 h, fourteen day pre-plant incorporated, test a.
[5] abbreviates: 504 h, twenty one day pre-plant incorporated.
Setting [6] is: fourteen day pre-plant incorporated, test a.

Take `c1ccc(-c2noc(-c3cccs3)n2)cc1` [compound 1822]: in series [1] (2 kg/ha, test a), the pest or weed control at 2000 g/ha was determined as 100%. Moreover, the “percent control (galling reduction) relative to the control blank treatment” value in the series with root knot nematode (RKN) (0.05 kg/ha, test a) was 7^a percent; with root knot nematode (RKN) (0.25 kg/ha, test a), 60%. For the same molecule, the “percent control (galling reduction), Acetone 1 mg/kg” value in the series with root knot nematode (RKN) (Acetone formulation (10% acetone in 0.05% Triton X 100), 1 mg/kg) was 94%. Moreover, the pest or weed control at 4000 g/ha with root knot nematode (setting [3]) worked out at 99%; in the series on root knot nematode (setting [4]), 97%; with root knot nematode (setting [5]), 82%. Moreover, the pest or weed control at 8000 g/ha turned out to be 99% in the series with root knot nematode (setting [3]), 95% in the series with root knot nematode (setting [5]) and 100% in the series on root knot nematode (setting [6]). Further, the “percent control (galling reduction), 2 kg/ha rate” value in the series with root knot nematode (setting [6]) is listed as 67^a percent. Besides, the pest or weed control at 0.375 mg/g in series [2] (0.375 mg ai/gram seed) turned out to be 58%. Besides, in series [2] (1.5 mg ai/gram seed), the pest or weed control at 1.5 mg/g was 70%. Besides, the “induction of caspase-3” value with caspase-3 is on record as “no induction of caspase-3”.

On to `Cc1cc(Cl)ccc1-c1noc(-c2ccco2)n1` [compound 5823], for which the pest or weed control at 100 g/ha in series [1] (0.1 kg/ha, test d) came out at 38%. Besides, the pest or weed control at 250 g/ha in series [1] (0.25 kg/ha, test d) was found to be 69%. Besides, the “percent control (galling reduction) relative to the control blank treatment” value in the series with root knot nematode (RKN) (0.1 kg/ha, test a) amounted to 85%; in the series with root knot nematode (RKN) (0.25 kg/ha, test c) it was 98%. The pest or weed control at 4000 g/ha in the series with root knot nematode (setting [4]) is 98%; in the series with root knot nematode (336 h, fourteen day pre-plant incorporated, test b), 94%. In the series with root knot nematode (setting [6]), the “percent control (galling reduction), 2 kg/ha rate” value was 85^a percent. Besides, the pest or weed control at 8000 g/ha amounted to 100% in the series on root knot nematode (setting [6]) and 100% in the series with root knot nematode (fourteen day pre-plant incorporated, test b). For the same molecule, the “induction of caspase-3” value in the series with caspase-3 is “no induction of caspase-3”.
